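A five-concentration, 48-hour dose response in 96-well plates underlies each endpoint, interpolated linearly between surrounding concentrations. Here, GI50 denotes the concentration required for 50% inhibition of growth.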 The source made the active and inactive calls. Rule as the data show it: active = GI50 up to about 1.1 µM and inactive = higher.
How the values were obtained:
Assay in all cases: NCI tumour cell line growth inhibition, 48 h
[1] = test system: 786-0
[2] = test system: ACHN
[3] = test system: HL-60
[4] = test system: HOP-62
[5] = test system: HOP-92
[6] = test system: HT-29
[7] = test system: K562
[8] = test system: MDA-N
[9] = test system: Malme-3M
[10] = test system: NCI-H226
[11] = test system: OVCAR-4
[12] = test system: OVCAR-5
[13] = test system: PC-3
[14] = test system: SF-268
[15] = test system: SF-295
[16] = test system: SK-MEL-5
[17] = test system: T47D
[18] = test system: TK-10
[19] = test system: U-251

Structure (SMILES) | GI50 [1] | GI50 [2] | GI50 [3] | GI50 [4] | GI50 [5] | GI50 [6] | GI50 [7] | GI50 [8] | GI50 [9] | GI50 [10] | GI50 [11] | GI50 [12] | GI50 [13] | GI50 [14] | GI50 [15] | GI50 [16] | GI50 [17] | GI50 [18] | GI50 [19]
Cn1c(=O)c2c(ncn2CN2CCN(Cn3cnc4c3c(=O)n(C)c(=O)n4C)CC2)n(C)c1=O | 29 µM (inactive) | 27 µM (inactive) | 23 µM (inactive) | > 100 µM (inactive) | 52 µM (inactive) | 26.2 µM (inactive) | 31.7 µM (inactive) | 50.2 µM (inactive) | 73.6 µM (inactive) | > 100 µM (inactive) | > 100 µM (inactive) | > 100 µM (inactive) | 53.5 µM (inactive) | 50.9 µM (inactive) | > 100 µM (inactive) | > 100 µM (inactive) | 30.5 µM (inactive) | 21.5 µM (inactive) | > 100 µM (inactive)
C=C1C(=O)OC2C1C(OC(=O)/C(C)=C/C)CC(O)(CCl)C1C(O)C3OC3(C)C21O (centres undefined) | 15.9 µM (inactive) | 19.9 µM (inactive) | 8.79 µM (inactive) | > 50 µM (inactive) | 24.9 µM (inactive) | 36.9 µM (inactive) | 18 µM (inactive) | 26.6 µM (inactive) | 0.735 µM (active) | > 50 µM (inactive) | > 50 µM (inactive) | > 50 µM (inactive) | > 50 µM (inactive) | > 50 µM (inactive) | > 50 µM (inactive) | 28.2 µM (inactive) | 23.8 µM (inactive) | 40.1 µM (inactive) | > 50 µM (inactive)
Clc1ccc2c(NCCCCN3OC3c3ccccc3)ccnc2c1 (centres undefined) | 2.47 µM (inactive) | 9.44 µM (inactive) | < 0.01 µM (active) | 4.75 µM (inactive) | 10.5 µM (inactive) | 3.16 µM (inactive) | 2.44 µM (inactive) | 5.42 µM (inactive) | 8.41 µM (inactive) | 18.4 µM (inactive) | 4.27 µM (inactive) | 14.4 µM (inactive) | 13.3 µM (inactive) | 8.07 µM (inactive) | 12.2 µM (inactive) | 4.79 µM (inactive) | 5.53 µM (inactive) | 10.3 µM (inactive) | 3.4 µM (inactive)
CCOC(=O)/C=C(\C(=O)OCC)n1ccc(=O)n(CC(=O)OCC)c1=O | 1.82 µM (inactive) | 1.64 µM (inactive) | 0.495 µM (active) | 20.7 µM (inactive) | 1.45 µM (inactive) | 5.9 µM (inactive) | 1.68 µM (inactive) | 5.96 µM (inactive) | 2.48 µM (inactive) | 6.52 µM (inactive) | 3.66 µM (inactive) | 4.95 µM (inactive) | 4.74 µM (inactive) | 13.2 µM (inactive) | 17.9 µM (inactive) | 13 µM (inactive) | 2.44 µM (inactive) | 2.57 µM (inactive) | 6.25 µM (inactive)
Cc1ccc2c(c1)C(=O)C1(C2)Cc2cccc(C)c2C1=O (centres undefined) | > 100 µM (inactive) | > 100 µM (inactive) | > 100 µM (inactive) | 88.9 µM (inactive) | 55 µM (inactive) | > 100 µM (inactive) | > 100 µM (inactive) | > 100 µM (inactive) | > 100 µM (inactive) | > 100 µM (inactive) | > 100 µM (inactive) | > 100 µM (inactive) | > 100 µM (inactive) | > 100 µM (inactive) | > 100 µM (inactive) | > 100 µM (inactive) | > 100 µM (inactive) | > 100 µM (inactive) | > 100 µM (inactive)
C=C1c2nc3ccccc3n2C=C(c2ccc(Cl)cc2)N1c1ccc(OCCN2CCCCC2)cc1 | > 45 µM (inactive) | > 45 µM (inactive) | 5.01 µM (inactive) | > 45 µM (inactive) | > 45 µM (inactive) | > 45 µM (inactive) | > 45 µM (inactive) | 6.32 µM (inactive) | 8.41 µM (inactive) | > 100 µM (inactive) | > 45 µM (inactive) | > 45 µM (inactive) | > 45 µM (inactive) | 1.63 µM (inactive) | > 45 µM (inactive) | > 45 µM (inactive) | > 45 µM (inactive) | > 45 µM (inactive) | > 45 µM (inactive)

Source: ChEMBL document CHEMBL1201862, “PubChem BioAssay data set” (2004)
